{"source": "the RepoRT retention time repository"}
{"experiment": "Agilent InfinityLab Poroshell 120 SB-C18, 100 × 2.1 mm, 2.7 µm, 40 °C, 0.2 mL/min, estimated dead time 1.1 min; A: water + 0.1% formic acid; B: acetonitrile; gradient (min/%B) 0/2 15/95 16/95", "details": "stereoisomer not certain", "units": {"LC retention time": "min"}}
{"smiles": "CC(O)(CC(=O)O)CC(=O)SCCNC(=O)CCNC(=O)C(O)C(C)(C)COP(=O)(O)OP(=O)(O)OCC1OC(n2cnc3c(N)ncnc32)C(O)C1OP(=O)(O)O", "note": "(stereo unspecified)", "LC retention time": 3.78}
{"smiles": "NC(CC(=O)O)C(=O)O", "note": "(stereo unspecified)", "LC retention time": 1.34}
{"smiles": "CC(=O)C(=O)O", "LC retention time": 2.51}
{"smiles": "CC(C)CCC=O", "LC retention time": 1.62}
{"smiles": "Nc1nc2c(ncn2C2CC(O)C(CO)O2)c(=O)[nH]1", "note": "(stereo unspecified)", "LC retention time": 5.19}
{"smiles": "NCC(=O)NC1OC(COP(=O)(O)O)C(O)C1O", "note": "(stereo unspecified)", "LC retention time": 13.5}
{"smiles": "NC(=O)C1=CN(C2OC(COP(=O)(O)OP(=O)(O)OCC3OC(n4cnc5c(N)ncnc54)C(OP(=O)(O)O)C3O)C(O)C2O)C=CC1", "note": "(stereo unspecified)", "LC retention time": 8.58}
{"smiles": "O=C(CO)C(O)C(O)C(O)COP(=O)(O)O", "note": "(stereo unspecified)", "LC retention time": 1.34}
{"smiles": "OCC1OC(O)C(O)C(O)C1O", "note": "(stereo unspecified)", "LC retention time": 12}
{"smiles": "NC(CCC(=O)NC(CSSCC(NC(=O)CCC(N)C(=O)O)C(=O)NCC(=O)O)C(=O)NCC(=O)O)C(=O)O", "note": "(stereo unspecified)", "LC retention time": 2.87}
{"smiles": "O=C(O)CCC(=O)O", "LC retention time": 6.53}
{"smiles": "CC(=O)NC1C(OP(=O)(O)OP(=O)(O)OCC2OC(n3ccc(=O)[nH]c3=O)C(O)C2O)OC(CO)C(O)C1O", "note": "(stereo unspecified)", "LC retention time": 5.47}
{"smiles": "NC(=O)c1ncn(C2OC(COP(=O)(O)O)C(O)C2O)c1N", "note": "(stereo unspecified)", "LC retention time": 8.32}
{"smiles": "CC(CCCC(CO)COS(=O)(=O)O)C1CCC2C3C(O)CC4CC(O)CCC4(C)C3CC(O)C12C", "note": "(stereo unspecified)", "LC retention time": 14.7}
{"smiles": "CC(=O)SCCNC(=O)CCNC(=O)C(O)C(C)(C)COP(=O)(O)OP(=O)(O)OCC1OC(n2cnc3c(N)ncnc32)C(O)C1OP(=O)(O)O", "note": "(stereo unspecified)", "LC retention time": 11.7}
{"smiles": "NC1C(O)OC(CO)C(O)C1O", "note": "(stereo unspecified)", "LC retention time": 1.62}
{"smiles": "CC(O)C(=O)O", "note": "(stereo unspecified)", "LC retention time": 3.37}
{"smiles": "CCCCCC(O)C=CC1C(O)CC(=O)C1CC=CCCCC(=O)O", "note": "(stereo unspecified)", "LC retention time": 13.3}
{"smiles": "NC(=O)c1cccnc1", "LC retention time": 2.46}
{"smiles": "C=C(CC)C(=O)O", "LC retention time": 1.62}
{"smiles": "CCCCCCCCCCCCCC=CC(O)C(COC1OC(CO)C(OC2OC(CO)C(O)C(O)C2O)C(O)C1O)NC(=O)CCCCCCCCCCCCCCCCCCCCC", "note": "(stereo unspecified)", "LC retention time": 2.36}
{"smiles": "CC=CC(=O)O", "LC retention time": 8.13}
{"smiles": "CCCCCCCCCC=CC(=O)O", "LC retention time": 12.7}
{"smiles": "CCC(C)C(N)C(=O)O", "note": "(stereo unspecified)", "LC retention time": 2.94}
{"smiles": "CC12CCC3C(CCC4=CC(=O)CCC43CO)C1CCC2=O", "note": "(stereo unspecified)", "LC retention time": 6.37}
{"smiles": "OCC(O)CO", "LC retention time": 3.76}
{"smiles": "O=C(O)c1cc(=O)[nH]c(=O)n1C1OC(COP(=O)(O)O)C(O)C1O", "note": "(stereo unspecified)", "LC retention time": 8.32}
{"smiles": "O=C(O)C1CC(O)C=N1", "note": "(stereo unspecified)", "LC retention time": 2.51}
{"smiles": "CCCC(O)CC(=O)O", "note": "(stereo unspecified)", "LC retention time": 12.4}
{"smiles": "CCCCCC=CCC=CC=CC=CC(SCC(N)C(=O)NCC(=O)O)C(O)CCCC(=O)O", "note": "(stereo unspecified)", "LC retention time": 8.91}
{"smiles": "Nc1ncnc2c1ncn2C1OC(CO)C(O)C1O", "note": "(stereo unspecified)", "LC retention time": 4.62}
{"smiles": "CC(O)C=O", "note": "(stereo unspecified)", "LC retention time": 1.48}
{"smiles": "O=C(O)C(=O)Cc1ccccc1", "LC retention time": 1.62}
{"smiles": "NC(CCC(=O)NC(CS)C(=O)NCC(=O)O)C(=O)O", "note": "(stereo unspecified)", "LC retention time": 2.1}
{"smiles": "CCCCCCCCCCCCCC=CC(O)C(N)CO", "note": "(stereo unspecified)", "LC retention time": 15.1}
{"smiles": "CC(=O)NC1C(O)OC(CO)C(O)C1O", "note": "(stereo unspecified)", "LC retention time": 2.94}
{"smiles": "OCC1OC(OC2(CO)OC(CO)C(O)C2O)C(O)C(O)C1O", "note": "(stereo unspecified)", "LC retention time": 4.1}
{"smiles": "NC(=O)c1ncn(C2OC(COP(=O)(O)O)C(O)C2O)c1NC=O", "note": "(stereo unspecified)", "LC retention time": 1.34}
{"smiles": "Nc1ncnc2c1ncn2C1OC(COP(=O)(O)OP(=O)(O)O)C(O)C1O", "note": "(stereo unspecified)", "LC retention time": 2.87}
{"smiles": "CC(C)CC(N)C(=O)O", "note": "(stereo unspecified)", "LC retention time": 6.01}
{"smiles": "O=c1[nH]cnc2nc[nH]c12", "LC retention time": 2.51}
{"smiles": "O=c1ccn(C2OC(COP(=O)(O)OP(=O)(O)O)C(O)C2O)c(=O)[nH]1", "note": "(stereo unspecified)", "LC retention time": 13}
{"smiles": "COc1cc(C(O)C(=O)O)ccc1O", "note": "(stereo unspecified)", "LC retention time": 1.37}
{"smiles": "CCCCCCCCCC(O)CC(=O)O", "note": "(stereo unspecified)", "LC retention time": 6.12}
{"smiles": "NCCCCNCCCN", "LC retention time": 1.45}
{"smiles": "Nc1ccn(C2CC(O)C(CO)O2)c(=O)n1", "note": "(stereo unspecified)", "LC retention time": 4.1}
{"smiles": "NCC(=O)O", "LC retention time": 2.87}
{"smiles": "Nc1ccn(C2CC(O)C(COP(=O)(O)OP(=O)(O)OP(=O)(O)O)O2)c(=O)n1", "note": "(stereo unspecified)", "LC retention time": 4.62}
{"smiles": "O=C(O)C1CCCN1", "note": "(stereo unspecified)", "LC retention time": 1.41}
{"smiles": "CC(=O)NC1C(O)OC(COP(=O)(O)O)C(O)C1O", "note": "(stereo unspecified)", "LC retention time": 1.37}
{"smiles": "Cc1cn(C2CC(O)C(CO)O2)c(=O)[nH]c1=O", "note": "(stereo unspecified)", "LC retention time": 14.7}
{"smiles": "O=C(O)CC(O)C(=O)O", "note": "(stereo unspecified)", "LC retention time": 4.45}
{"smiles": "O=P(O)(O)OCC1OC(O)C(O)C(O)C1O", "note": "(stereo unspecified)", "LC retention time": 1.37}
{"smiles": "Nc1nc2c(ncn2C2CC(O)C(COP(=O)(O)OP(=O)(O)O)O2)c(=O)[nH]1", "note": "(stereo unspecified)", "LC retention time": 11.7}
{"smiles": "CCCCCCCCCCCCCCCC(=O)OC(CC(=O)[O-])C[N+](C)(C)C", "note": "(stereo unspecified)", "LC retention time": 15.6}
{"smiles": "O=c1ccn(C2OC(COP(=O)(O)OP(=O)(O)OP(=O)(O)O)C(O)C2O)c(=O)[nH]1", "note": "(stereo unspecified)", "LC retention time": 10.1}
